From a melting point compilation (Tetko et al.; mined from patent text by program, amines drawn as free bases though some values may be those of a salt) come the findings set out here.

A value given as a limit tells only on which side of the number the result lay.

Take `CCN1Cc2ccccc2C(=O)c2cc(CC(=O)O)ccc21`: the melting point (commonly the temperature of the solid-liquid transition) fell in the range of 141 to 144 °C.
As to `CCCCCCCNC(=O)Nc1ccccc1C(=O)NCCC(c1ccccc1)c1ccccc1`, the melting point turned out to be 118 °C.
Under `CCC1(CC(=O)OC)OCC(O)c2c1[nH]c1ccccc21` (stereo not given) stands 86 to 90 °C.
For `Cc1c(C)c2c(c(C)c1O)CCC(C)(COc1ccc(NC(=S)NC(c3ccccc3)c3ccccc3)cc1)O2` (stereo not given), the melting point was 146 to 148 °C.
Compound `CNCCCCn1c(-c2ccc(Br)cc2)csc1=Nc1ccccc1` registered a melting point of 56 to 57 °C.
`O=C(O)c1cc(F)cc(-c2ccc(F)c3cc(Cc4cccc(C(F)(F)F)c4)sc23)c1` displayed a melting point of 169 to 170 °C.
Under `CCC(=O)Nc1cccc(-c2ccnc3c(C(=O)c4ccccc4)cnn23)c1` stands 172 to 174 °C; under `CN1CC(CCCCN2CCN(c3ncccn3)CC2)OC1=O` (stereo not given), 74 to 76 °C.
Under `Cc1cc(=O)c(Oc2ccc(F)cc2F)c(-c2ccc(S(C)(=O)=O)cc2)o1` stands 191 °C; under `CCC(CC(Oc1ccccc1)C(=O)O)Oc1ccc(Cl)cc1` (stereo not given), 94 °C.
With `COC(=O)C(=Cc1c[nH]c2cc(C)ccc12)NC(C)=O`, the melting point fell in the range of 182 to 183 °C.
In turn, `COc1ccc(CSc2nnc(-c3ccc4[nH]ncc4c3)o2)cc1` returned a melting point of 204 to 205 °C.
Regarding `CCOC(=O)/C=C/c1cn(Cc2ccccc2)nc1OCc1ccccc1`, the melting point was 88 to 89 °C.
Under `CC(C)(CNC1(c2ccccc2Cl)C(=O)Nc2ccc(Cl)cc21)NC(=O)OC(C)(C)C` (stereo not given) stands 164 °C.
Under `COC(=O)C1Oc2ccc(Oc3ccc(Cl)cc3)cc2C(C)(c2ccccc2)O1` (stereo not given) stands 100 °C.
With `O=S(=O)(Cl)c1cccc2[nH]nnc12` the figure was 173 to 175 °C; with `COc1ccc(-c2oc3cc(C)c(C)cc3c2-c2ccc(OC)cc2)cc1`, 153 °C.
In turn, `COc1ccc(OCCc2c[nH]cn2)cc1` returned a melting point of 178 to 181 °C.
`CC(C)(OCc1nn(Cc2ccccc2)c2ccccc12)C(=O)NCC(=O)O` had a melting point of 157 to 158 °C.
Under `CC(=O)Oc1cc(Cl)c(Cl)c(Cl)c1N1CC(O)CC1=O` (stereo not given) stands 84 to 86 °C; under `Cc1cccc(C)c1NC(=O)CN1CCNC(C)C1c1ncnc2sccc12` (stereo not given), 184 to 185 °C.
Under `CN(C)C1CCN(c2nc(N3CCOCC3)c3ncnc(N(CC(=O)O)Cc4ccccc4)c3n2)CC1` stands 151 to 155 °C.
With `O=C(CN1CCC(Cc2ccccc2)CC1)Nc1ccc2c(c1)CC(=O)N2` the figure was 166 to 170 °C; with `O=S1(=O)NC(Cl)=Nc2ccc(Cl)cc21`, 242 to 244 °C; with `O=c1[nH]c2ccccc2c2cc(CO)nn12`, 286 to 288 °C.
Compound `N#Cc1ncc(NCCO)nc1Br` registered a melting point of 158 to 160 °C.
Under `COCCOC(=O)COc1cc(F)ccc1C(=O)NCc1cccc([N+](=O)[O-])c1` stands 112 to 115 °C; under `COc1ccc(CSC(=S)N2Cc3[nH]c4ccccc4c3CC2C(=O)O)cc1` (stereo not given), 195 to 196 °C; under `Cc1cccc(-c2cccc3c2OC(CN)C3)c1C` (stereo not given), more than 225 °C.
In turn, `Nc1cccc(C(=O)O)c1S(=O)(=O)CCO` showed a melting point of 75 to 77 °C.
Under `COC(=O)c1nc(-c2ccc(CO)cc2)cc(N)c1Cl` stands 138 to 139 °C.
Under `NS(=O)(=O)Oc1ccccc1` stands 81 to 85 °C.
The compound `CC1=NC(=Cc2cccc(-c3ccc(Cl)cc3)c2)C(=O)O1` had a melting point of 150 °C.
Under `CCOC(=O)c1cn(NCC=O)c2c(F)c(F)c(F)cc2c1=O` stands 185 °C; under `CSc1ccc(N)c(C#N)c1`, 50 to 54 °C; under `c1ccc2c(c1)CC[C@H]1O[C@@H]21`, 47 to 48 °C.
The compound `CSCC(O)(Cn1cncn1)c1ccc(Cl)cc1Cl` (stereo not given) had a melting point of 117 to 119 °C.
With `COc1cccc(CCN2C(=O)c3c(F)c(F)c(F)c(F)c3C2(O)c2ccc(F)cc2)c1` (stereo not given) the figure was 161 °C.
Consider `COc1cc(-c2ncn(-c3cc(OC)c(OC)c(OC)c3)c2-c2ccc(N(C)C)cc2)cc(OC)c1OC`, for which the melting point was in the range of 169 to 171 °C.
`O=C(NCc1cc[nH]n1)c1ccnc(N2CCN(Cc3ccc(F)cc3)C2=O)c1`: the melting point was in the range of 178 to 180 °C.
`CCCC[C@@H](C)[C@@H](O)[C@H](NC)C(=O)O` displayed a melting point of 248 to 249 °C.
Under `CN(C)CCCCNC(=O)c1cnc2c(c1)N(Cc1cc(Cl)ccc1C(F)(F)F)CCN2` stands 182 °C; under `Cn1c(CC#N)ccc1C(=O)Cl`, 78 to 80 °C; under `CNCC(=O)N(C)Cc1ccc(CCn2cnc3cc(-c4ccc(Cl)cc4)sc3c2=O)cc1`, 166 to 169 °C.
For `CCCn1c(=O)c2[nH]c(/C=C/c3ccc4c(c3)OCCO4)nc2n(CCC)c1=O`, the melting point is more than 275 °C.
`CCOC(=O)c1cc(CC)sc1Nc1c([N+](=O)[O-])cccc1C(F)(F)F` displayed a melting point of 72 to 73 °C.
Consider `CCCCN=C(CS(C)=O)c1cccc(OC)c1O` (stereo not given), for which the melting point lay in the range of 125 to 127 °C.
`CC1(C)C(=O)ON(Cc2cc(Cl)ccc2Cl)C1=O`: the melting point lay in the range of 78 to 80 °C.
Under `COc1ccc(C2CCN(c3c(C)c(C)c4c(c3C)[C@@H](c3ccc(C)cc3)C(C)(C)O4)CC2)cc1OC` stands 102 to 106 °C; under `CC(C)(C(=O)O)c1ccc2cc(OCc3ccc4ccccc4n3)ccc2c1`, 207 to 209 °C.
For the compound `CCCCCc1ncc(C(=O)OCC)c(O)n1`, the melting point is 127 to 129 °C.
`CCCC12CCC(=O)C=C1c1c(cc(CCC(=O)O)c(Cl)c1Cl)C2` (stereo not given) gave a melting point of 201 to 203 °C.
`CC(=O)CC(=O)Nc1c(C(=O)c2ccccc2)[nH]c2cc(Cl)ccc12` registered a melting point of 170 to 173 °C.
`OC1CSC(Oc2ccc(-c3ccncc3)nc2F)C(O)C1O` (stereo not given): the melting point is 196 °C.
With `CNS(=O)(=O)c1ccc(C2CCN(c3ccncc3)CC2)cc1` the figure was 225 to 228 °C; with `COc1cc(OC)cc(-c2nc[nH]c2-c2ccc(OC)c(O)c2N)c1`, 148 °C.
In turn, `Cc1c(OCCCl)cccc1[N+](=O)[O-]` registered a melting point of 58 to 59 °C.
Under `O=c1[nH]c2ccc(C(O)CN3CCC(O)(c4ccccc4)CC3)cc2o1` (stereo not given) stands 175 to 177 °C; under `COc1ccc(-n2nc(-c3ccc(OC)c(CCC(=O)O)c3OC)cc2-c2ccc(Cl)cc2)cc1`, 100 to 101 °C.
Under `CCOC(=O)c1cn(C2CCCCC2)c2cc(Br)ccc2c1=O` stands 129 to 133 °C; under `O=c1[nH]c2cc(Br)ccc2c(O)c1-c1ccccc1`, 343 to 345 °C.
Under `NS(=O)(=O)c1ccc(CCO)s1` stands 70 to 72 °C.
For the compound `CCC(CC)OC(=O)N1CCC(c2nc3cc(-c4ccc(-n5cnnn5)cc4F)ccc3o2)CC1`, the melting point was in the range of 114 to 117 °C.
With `COc1ccc2c(c1)C(NCCCCc1ncc(Br)cc1C)=NS2(=O)=O` the figure was 161 to 162 °C; with `COc1ccc(Oc2ccc(OCc3ccccc3)cc2)c([N+](=O)[O-])c1`, 88 to 89.5 °C.
